In US8535736B2, “Methods and compositions for the treatment of infection or infectious colonization of the eyelid, ocular surface, skin or ear” (Advanced Vision Research, Inc, priority 2006, dated 2013):

Key:
P. aeruginosa = details: disc diffusion and broth dilution methods; cited from earlier work
Pseudomonas aeruginosa = experiment: Kill-time test (exposure time, survivors, log and percent reduction in CFU); type: cell-based; details: Linalool 0.75% alone, at one minute
Protocol: (§1) The following experiments were performed with a number of topical preparations to test the efficacy of each preparation against both gram negative and gram positive bacteria. The data is presented in tables showing the organism which the preparation was tested against, the exposure time, the number of survivors, the log reduction and the percent reduction in CFUs (Colony Forming Units).
(§2) Experiments were performed with tea tree oil, manuka oil, alpha-terpineol, and linalool in the EyeCI vehicle. The EyeCL vehicle (Advanced Vision Research, Woburn, Mass.) and OcuSoft Lid Scrub Foaming Eyelid Cleanser (CYNACON/OCUSOFT, Rosenberg, Tex.) were tested as controls.

Staphylococcus aureus = experiment: as above; type: cell-based; details: at 1 minute
Protocol: as §1, §2

Row | Compound | activity against P. aeruginosa (P. aeruginosa) | log of Pseudomonas killing (Pseudomonas aeruginosa) | log reduction in S. aureus killing (Staphylococcus aureus; 0.75% linalool alone) [log] | log reduction in S. aureus (Staphylococcus aureus; 0.85% linalool) [log]
1 | CC1=CCC(C(C)(C)O)CC1 (stereo not drawn) [alpha-terpineol] | inactive | – | – | –
2 | C=CC(C)(O)CCC=C(C)C (centres unmarked) [linalool] | inactive | greater than 1 log | ~1 | > 1
